Reference: patent US20050148634A1, “1-N-Aminobenzimidazole derivatives” (ZERIA PHARMACEUTICAL CO., LTD, priority 2002, published 2005)

Experiments:
H+/K+-ATPase = biological target: T1, H+/K+-ATPase (Sus scrofa, UniProt P19156); test: Test 1 proton pump inhibitory effect: H+/K+-ATPase enzyme inhibiting activity at pH 1; assay type: biochemical; conditions: swine stomach enzyme sample; test compound pretreated in pH 1 hydrochloric acid solution with 50% DMSO for 15 minutes; ATP substrate
T1 construct: An interface fraction obtained by the centrifugation was collected; from tissue; host or cells: swine stomach mucosal layer, membrane fraction from the sucrose interface
T1 sequence (P19156 2-1034 limits assumed): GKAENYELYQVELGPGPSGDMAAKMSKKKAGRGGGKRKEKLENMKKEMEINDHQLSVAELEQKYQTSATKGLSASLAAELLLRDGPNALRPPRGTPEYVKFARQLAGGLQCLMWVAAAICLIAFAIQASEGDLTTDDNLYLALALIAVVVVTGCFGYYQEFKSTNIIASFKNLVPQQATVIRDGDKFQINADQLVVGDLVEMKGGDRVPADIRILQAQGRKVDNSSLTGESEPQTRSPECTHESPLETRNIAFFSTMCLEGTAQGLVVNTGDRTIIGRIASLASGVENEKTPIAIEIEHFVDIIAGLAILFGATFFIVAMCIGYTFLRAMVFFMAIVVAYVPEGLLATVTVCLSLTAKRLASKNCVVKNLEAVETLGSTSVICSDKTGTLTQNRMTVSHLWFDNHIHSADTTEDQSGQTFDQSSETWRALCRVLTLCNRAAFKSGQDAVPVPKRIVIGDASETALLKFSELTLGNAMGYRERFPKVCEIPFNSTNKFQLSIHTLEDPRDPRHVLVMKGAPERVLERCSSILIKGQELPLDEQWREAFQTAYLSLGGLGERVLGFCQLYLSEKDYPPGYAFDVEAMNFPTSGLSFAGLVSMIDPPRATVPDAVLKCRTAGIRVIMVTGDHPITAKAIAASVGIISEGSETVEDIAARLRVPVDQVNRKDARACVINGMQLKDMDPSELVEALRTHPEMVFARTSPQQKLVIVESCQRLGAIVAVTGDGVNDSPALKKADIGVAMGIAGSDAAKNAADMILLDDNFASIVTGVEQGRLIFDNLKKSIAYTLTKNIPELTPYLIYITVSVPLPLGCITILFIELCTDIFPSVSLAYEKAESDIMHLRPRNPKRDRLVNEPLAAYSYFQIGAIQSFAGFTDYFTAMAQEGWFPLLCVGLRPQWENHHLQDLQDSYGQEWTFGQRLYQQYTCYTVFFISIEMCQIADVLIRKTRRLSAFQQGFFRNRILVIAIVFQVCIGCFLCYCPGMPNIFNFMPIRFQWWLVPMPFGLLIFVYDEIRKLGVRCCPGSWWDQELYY
T1 sequence (P18434 whole entry partner): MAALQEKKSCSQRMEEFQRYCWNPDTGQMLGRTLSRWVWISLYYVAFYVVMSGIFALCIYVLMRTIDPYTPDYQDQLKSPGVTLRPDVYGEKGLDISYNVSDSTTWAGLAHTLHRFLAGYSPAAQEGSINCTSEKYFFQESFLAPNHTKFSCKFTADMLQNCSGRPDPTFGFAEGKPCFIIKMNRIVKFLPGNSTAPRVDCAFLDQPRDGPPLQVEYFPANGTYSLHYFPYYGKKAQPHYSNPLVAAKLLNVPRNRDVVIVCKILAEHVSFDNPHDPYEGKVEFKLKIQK
Protocol: Test 1 (Proton Pump Inhibitory Effect)
(1) Preparation of H^+/K^+-ATPase Enzyme Sample
A swine stomach which had been stored frozen was separated into a muscularis and a mucosal layer. After the mucosal layer was disrupted with a mixer in 5 volumes of 20 mmol/L tris-HCl buffer containing 0.25 mol/L of sucrose and 1 mmol/L of EGTA (pH 7.4, hereafter abbreviated as “tris-HCl buffer”), centrifugation was conducted at 9,000×g for 30 minutes. The supernatant was gently overlaid on 20 mmol/L tris-HCl buffer containing 30% of sucrose and 1 mmol/L of EGTA (pH 7.4, 8 mL), followed by ultracentrifugation at 100,000×g for 60 minutes. An interface fraction obtained by the centrifugation was collected and subjected to centrifugation twice under 113,000×g for 60 minutes. The sediment was suspended with tris-HCl buffer, and the suspension was homogenized at low rotational speed to provide an enzyme sample. The enzyme sample was stored frozen at −80° C. Using the method reported by Smith et al. (Anal. Biochem., 150, 76-85 (1985)), the thus-obtained sample was quantitatively analyzed for its protein content with a BCA protein assay reagent. The above procedure was all conducted under water cooling.
(2) Discussion about H+/K^+-ATPase Enzyme Inhibiting Activity at pH 1
Following a method making use of a method for the quantitation of inorganic phosphorus as a degradation product (Biochem. Biophys. Res. Commun., 40, 880-886 (1970)), an assay of H^+/K^+-ATPase enzyme inhibiting activity was performed by using ATP as a substrate. As a hydrochloric acid solution for the pretreatment of each test compound, a 1×10^−1 mol/L (pH 1) solution of hydrochloric acid with 50% DMSO contained therein was used. Solutions of each test compound at various concentrations were added to aliquots of the hydrochloric acid solution such that the solutions were diluted 1,000-fold, and the thus-diluted solutions were left over at room temperature for 15 minutes. […] 840-μL Aliquots of an enzyme solution (5 μg proteins) diluted with the TE buffer were then added. After incubated at 37° C. for 30 minutes, 50-μL aliquots of 40 mmol/LATP solution (dissolved in the TE buffer free of KCl) were added to initiate an enzymatic reaction (total volume: 1 mL, final ATP concentration: 2 mmol/L). Subsequent to incubation at 37° C. for 30 minutes, 2-mL aliquots of ice-cold 12% trichloroacetic acid were added to terminate the enzymatic reaction. A molybdenum reagent (1 mL; 3.75% ammonium molybdate/1.5 mol/L sulfuric acid) and butyl acetate (5 mL) were added. After vigorous shaking and mixing for 5 minutes, the absorbance of a butyl acetate layer was measured at 310 nm. From absorbances obtained by dissolving KH2PO4 solutions of various concentrations in aliquots of an 8% TCA solution and performing a similar procedure, a standard curve was prepared to perform a conversion of each quantity of inorganic phosphorus. The assay was conducted in duplicate. From a difference between an average quantity of inorganic phosphorus in the case of the KCl-containing TE buffer and an average quantity of inorganic phosphorus in the case of the KCl-free TE buffer, a residual activity was determined. Supposing that the activity of the control value (DMSO) was 100%, the percent inhibition of the compound was calculated. As the inhibition potency of each test compound, an IC50 value was calculated and presented. The test compounds were al used by dissolving them in dimethyl sulfoxide immediately before their use.

human CYP2C19 = biological target: T2, human CYP2C19 (Homo sapiens, UniProt P33261); test: Test 3 human CYP2C19 activity inhibition test (S-(+)-mephenyloin to 4'-hydroxymephenyloin); assay type: in vitro ADME; conditions: test compound 10 μM, microsomes from human CYP2C19 expression system, formed 4'-hydroxymephenyloin compared with control
T2 construct: purchased Sumitomo Chemical Co., Ltd
T2 sequence (P33261 whole entry): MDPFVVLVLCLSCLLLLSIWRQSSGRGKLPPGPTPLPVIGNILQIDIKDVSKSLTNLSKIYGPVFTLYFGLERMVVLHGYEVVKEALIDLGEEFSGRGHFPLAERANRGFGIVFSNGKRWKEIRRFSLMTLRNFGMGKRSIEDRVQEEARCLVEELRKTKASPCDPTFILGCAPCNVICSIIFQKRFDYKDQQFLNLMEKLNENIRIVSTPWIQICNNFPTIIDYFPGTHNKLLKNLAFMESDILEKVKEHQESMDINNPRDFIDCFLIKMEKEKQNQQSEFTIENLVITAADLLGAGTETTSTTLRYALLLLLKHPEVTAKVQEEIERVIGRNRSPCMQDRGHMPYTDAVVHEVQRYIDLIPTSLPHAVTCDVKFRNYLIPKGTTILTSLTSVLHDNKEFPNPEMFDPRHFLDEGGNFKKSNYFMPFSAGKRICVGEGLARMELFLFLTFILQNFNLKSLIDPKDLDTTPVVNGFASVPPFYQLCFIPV
Protocol: Test 3 (Human CPY2C19 Activity Inhibition Test)
CYP2C19 specifically induces the metabolic reaction of from S-(+)-mephenyloin into 4′-hydroxymephenyloin. Using the CYP2C19 expression system, the inhibitory effect of each test substance was investigated based on the amount (concentration) of formed 4′-hydroxymephenylion as an index of CYP2C19 activity.
a) Metabolic Activity Test
As a reaction mixture, a 125 μmol/L solution of S-(+)-mephenyloin in methanol (50 μL) and a 25 μmol/L solution of each test substance in methanol (0, 10, 100 or 200 μL) were added to 10-mL test tube made of glass, and the solvent was distilled off under a nitrogen gas stream (40° C.).
After incubated at 37° C. for 10 minutes, a 12% aqueous solution of perchloric acid (50 μL) was added to terminate the reaction.
Subsequent to the termination of the reaction, 10 μg/mL methyl p-hydroxybenzoate (50 μL) as an internal standard (I.S.) and diethyl ether (2 mL) were added. The resulting mixture was shaken for 10 minutes, and then centrifuged (3,000 rpm, 10 minutes). The organic layer was separately collected, and under a nitrogen gas stream (40° C.), the solvent was distilled off. The residue was dissolved in a mobile phase (200 μL), and an analysis was conducted by high performance liquid chromatography (HPLC).
Using a solution of 4′-hydroxymephenyloin in lieu of the S-(+)-mephenyloin solution, a calibration line was prepared following the above-described reaction method. Quantitation was conducted based on a peak area ratio of 4′-hydroxymephenyloin to the I.S. Comparing the formed amount of 4′-hydroxymephenyloin as a control with that of 4′-hydroxymephenyloin at the time of the existence of the test compound, the comparison result was used as an index of activity.
HPLC was conducted under the following HPLC conditions A or HPLC conditions B. […]

[1] = test system: histamine-stimulated gastric acid secretion; test: Test 2 gastric acid secretion inhibitory effect, acute fistula method; assay type: in vivo, Sprague-Dawley (SD) rats; conditions: male SD rats, administered into the duodenum, total gastric acid secreted on 3rd-5th hours, Probit method; for ED50: Rattus norvegicus
Protocol: Test 2 (Gastric Acid Secretion Inhibitory Effect)
(1) As laboratory animals, seven-week old male Sprague-Dawley (SD) rats were purchased from CHARLES RIVER JAPAN, INC. Subsequent to preliminary rearing for 5 days or longer, they were used in an experiment.
Each test medicine was suspended or dissolved in a 0.5% carboxymethylcellulose sodium solution to prepare a volume of 2.5 mL/kg.
(2) Measurement of Gastric Acid Secretion
Using rats fasted for 18 hours, histamine-stimulated gastric acid secretion in an acute fistula method following the method reported by Hiramatsu et al. (Dig. Dis. Sci., 39, 689-697 (1994)) was measured. Described specifically, each rat was lightly anesthetized with diethyl ether. After that, a winged tube needle with 3.8% citric acid solution filled therein was caused to dwell in the caudal vein. Celiotomy was performed, and the pyloric part of the stomach was ligated. A small hole was then formed in the duodenum, and a feeding tube with physiological saline filled therein was caused to dwell there. After the interior of the stomach was washed with physiological saline, a polyethylene-made fistula tube (inner diameter: 4 mm) was fitted to the proventriculus part and an incised part of the proventriculus was ligated to hold the fistula tube in place. The stomach and duodenum were returned into the abdominal cavity. Celiotomy was performed with the fistula tube and feeding tube being left extending outside, and the rat was placed in a Ballman Cage Type II. Histamine was continuously injected through the winged needle allowed to dwell in the caudal vein (8 mg/kg/h, 1.38 mL/h). Fifteen minutes later, the gastric juice was sampled, and after that, the gastric juice was sampled at intervals of 1 hour. After the amount of each gastric juice sample was recorded, it was titrated with 0.1 mol/L NaOH to a final point of pH 7.0. From the volume required for the titration, the acidity was calculated. The quantity of the secreted gastric acid was determined from the product of the amount of the gastric juice and the acidity. Incidentally, the rats were divided into groups such that the total amount of the first gastric juice samples became equal in each group. Each test medicine was administered in a volume of 2.5 mL/kg into the duodenum through the feeding tube fitted beforehand in the duodenum. To a control group, 0.5% Na—CMC solution was administered.
(3) Analysis of the Results
From the results so obtained, data were presented in terms of average ±S.D. The sum of quantities of gastric acid secreted on the 3rd, 4th and 5th hours after the first sampling was recorded as a total quantity of secreted gastric acid. The percent inhibition in each group was calculated from the total quantity of secreted gastric acid in the control group and the total quantity of secreted gastric acid in the group. From the percent inhibition in each group, the 50% effective dose (ED50) was next calculated by the Probit method.

| SMILES | CYP2C19 activity inhibition (%) (human CYP2C19) | further results |
| --- | --- | --- |
| Cc1c(OCC(F)(F)F)ccnc1C[S+]([O-])c1nc2ccccc2n1NCc1ccccc1 (racemic) [Example 49] |  | IC50 (H+/K+-ATPase): 1.03 µM |
| COCCCOc1ccnc(C[S+]([O-])c2nc3ccccc3n2NCCCO)c1C (racemic) [Example 57] |  | CYP2C19 activity inhibition (%) (human CYP2C19; listed as Racemic mixture of Example 57, 10 µM): 73% |
| Cc1c(OCCCC(F)(F)F)ccnc1C[S+]([O-])c1nc2ccccc2n1N (racemic) [Example 25] |  | Gastric acid secretion inhibitory effect ED50 [1]: 1.1 mg/kg |
| Cc1c(OCC(F)(F)F)ccnc1C[S+]([O-])c1nc2ccccc2n1NCCN(C)C (racemic) [Example 48] | 72.3 |  |
| COc1c(OCCCC(F)(F)F)ccnc1C[S+]([O-])c1nc2ccccc2n1N (racemic) [Example 26] | 73.2 | Gastric acid secretion inhibitory effect ED50 [1]: 2.6 mg/kg |
| COc1c(OCCOCC(F)(F)F)ccnc1C[S+]([O-])c1nc2ccccc2n1N (racemic) [Example 24] | 81.9 |  |
| COc1c(OCC(F)(F)F)ccnc1C[S+]([O-])c1nc2ccccc2n1NCCCO (racemic) [Example 59] | 61.7 |  |
| COCCCOc1ccnc(C[S+]([O-])c2nc3ccccc3n2NCCCO)c1C (single isomer, unassigned; (+)) [(+) Isomer of Example 57] |  | CYP2C19 activity inhibition (%) (human CYP2C19; 10 µM): 67.4% |
| Cc1c(OCC(F)(F)F)ccnc1C[S+]([O-])c1nc2ccccc2[nH]1 (centres unmarked) [Lansoprazole, lansoprazole, reference compound] | 8.7 | ED50 [1]: 1.1 mg/kg |
| COc1ccc2[nH]c([S+]([O-])Cc3ncc(C)c(OC)c3C)nc2c1 (centres unmarked) [Omeprazole, omeprazole, reference compound] | 18.4 | ED50 [1]: 3.6 mg/kg |
| COc1ccc2nc([S@@+]([O-])Cc3ncc(C)c(OC)c3C)[nH]c2c1 [Esomeprazole, esomeprazole, reference compound] | 35.4 | ED50 [1]: 2.9 mg/kg |
| Cc1c(OCC(F)(F)F)ccnc1C[S+]([O-])c1nc2ccccc2n1NCCCO (racemic) [Example 36] |  | CYP2C19 activity inhibition (%) (human CYP2C19; listed as Racemic mixture of Example 36, 10 µM): 61.7% |
| COCCCOc1ccnc(C[S+]([O-])c2nc3ccccc3[nH]2)c1C (centres unmarked) [Rabeprazole, rabeprazole, reference compound] | 39.8 | ED50 [1]: 2.5 mg/kg |
| COc1ccnc(C[S+]([O-])c2nc3ccc(OC(F)F)cc3[nH]2)c1OC (centres unmarked) [Pantoprazole, pantoprazole, reference compound] | 33.1 | ED50 [1]: 0.34 mg/kg |
| COCCCOc1ccnc(C[S+]([O-])c2nc3ccccc3n2N)c1C (racemic) [Example 21] | 78.6 |  |
| COCCCOc1ccnc(C[S+]([O-])c2nc3ccccc3n2NCC(C)O)c1C (mixture of isomers) [Example 63] | 72.1 |  |
| Cc1c(OCCOCC(F)(F)F)ccnc1C[S+]([O-])c1nc2ccccc2n1NCCCO (racemic) [Example 60] | 71.4 |  |
| COc1c(OCCOCC(F)(F)F)ccnc1C[S+]([O-])c1nc2ccccc2n1NCCCO (racemic) [Example 61] | 64.8 |  |
| Cc1c(OCC(F)(F)F)ccnc1C[S+]([O-])c1nc2ccccc2n1NCC(C)O (mixture of isomers) [Example 55] | 63.8 | Gastric acid secretion inhibitory effect ED50 [1]: 3.6 mg/kg |
| COCCOc1ccnc(C[S+]([O-])c2nc3ccccc3n2NCCCO)c1C (racemic) [Example 58] | 67.3 |  |
| Cc1c(OCCOCC(F)(F)F)ccnc1C[S+]([O-])c1nc2ccccc2n1N (racemic) [Example 23] | 75.6 |  |
| COCCCOc1ccnc(C[S+]([O-])c2nc3ccccc3n2NCCCO)c1C (single isomer, unassigned; (-)) [(−) Isomer of Example 57] |  | CYP2C19 activity inhibition (%) (human CYP2C19; 10 µM): 77.6% |
| Cc1c(OCC(F)(F)F)ccnc1C[S+]([O-])c1nc2ccccc2n1NCCCO (single isomer, unassigned; (+)) [(+) Isomer of Example 36] |  | Gastric acid secretion inhibitory effect ED50 [1]: 1.1 mg/kg; CYP2C19 activity inhibition (%) (human CYP2C19; 10 µM): 70.6% |
| Cc1c(OCCCOCC(F)(F)F)ccnc1C[S+]([O-])c1nc2ccccc2n1NCCCO (racemic) [Example 62] | 95.3 |  |
